Experimental data as given in ChEMBL document CHEMBL3124829, “Discovery of SCH 900188: A Potent Hepatitis C Virus NS5B Polymerase Inhibitor Prodrug As a Development Candidate” (ACS Med Chem Lett, 2014).
Active and inactive are the calls of the source. The calls are words filed in the database; no cut-off is given here.

Legend:
Salmonella typhimurium = assay: Mutagenic activity in Salmonella typhimurium by mini Ames test; type: toxicity, organism-based; conditions: salmonella enterica subsp. enterica serovar typhimurium
Canis familiaris [1] = assay: Half life in dog assessed as 4-Fluoro-6-((7-fluoro-4-oxo-3,4-dihydroquinazolin-6-yl)methyl)-8-(2-oxo-1,2-dihydropyridin-3-yl)-6H-furo[2,3-e]indole-7-carboxylic acid at 1 mg/kg, iv; type: ADME, organism-based, Canis lupus familiaris; parameters: dose 1 mg/kg, route intravenous; conditions: in vivo
Rattus norvegicus [2] = assay: AUC (0 to 24 hrs) in rat assessed as 4-Fluoro-6-((7-fluoro-4-oxo-3,4-dihydroquinazolin-6-yl)methyl)-8-(2-oxo-1,2-dihydropyridin-3-yl)-6H-furo[2,3-e]indole-7-carboxylic acid at 10 mg/kg, po; type: ADME, organism-based, Plasma; parameters: time < 24 hr, dose 10 mg/kg, route oral; conditions: in vivo
Rhesus monkey [3] = assay: Oral bioavailability in monkey assessed as 4-Fluoro-6-((7-fluoro-4-oxo-3,4-dihydroquinazolin-6-yl)methyl)-8-(2-oxo-1,2-dihydropyridin-3-yl)-6H-furo[2,3-e]indole-7-carboxylic acid; type: ADME, organism-based, Macaca mulatta; conditions: in vivo
[4] = system: RNA-directed RNA polymerase (Hepacivirus hominis), O39930 [G554D]; assay: Inhibition of HCV NS5B RdRp G554D mutant palm allosteric site
Rattus norvegicus [5] = assay: Oral bioavailability in rat assessed as 4-Fluoro-6-((7-fluoro-4-oxo-3,4-dihydroquinazolin-6-yl)methyl)-8-(2-oxo-1,2-dihydropyridin-3-yl)-6H-furo[2,3-e]indole-7-carboxylic acid; type: ADME, organism-based; conditions: in vivo
Canis familiaris [6] = assay: AUC (0 to 24 hrs) in dog assessed as 4-Fluoro-6-((7-fluoro-4-oxo-3,4-dihydroquinazolin-6-yl)methyl)-8-(2-oxo-1,2-dihydropyridin-3-yl)-6H-furo[2,3-e]indole-7-carboxylic acid at 3 mg/kg, po; type: ADME, organism-based, Canis lupus familiaris, Plasma; parameters: time < 24 hr, dose 3 mg/kg, route oral; conditions: in vivo
Hepatitis C virus = assay: Antiviral activity against HCV infected in human hepatoma cells assessed as inhibition of viral RNA replication after 3 days by real time PCR analysis; type: functional, organism-based, Hepacivirus hominis; conditions: 72 h
Rattus norvegicus [7] = organism: Rattus norvegicus; assay: Ratio of drug level from liver to plasma in rat assessed as 4-Fluoro-6-((7-fluoro-4-oxo-3,4-dihydroquinazolin-6-yl)methyl)-8-(2-oxo-1,2-dihydropyridin-3-yl)-6H-furo[2,3-e]indole-7-carboxylic acid after 6 hrs; conditions: other tissue
[8] = Mutagenic activity in micronucleus (unknown origin); type: ADME
Rhesus monkey [9] = assay: Cmax in monkey assessed as 4-Fluoro-6-((7-fluoro-4-oxo-3,4-dihydroquinazolin-6-yl)methyl)-8-(2-oxo-1,2-dihydropyridin-3-yl)-6H-furo[2,3-e]indole-7-carboxylic acid; type: ADME, organism-based, Macaca mulatta; conditions: in vivo
Rattus norvegicus [10] = organism: Rattus norvegicus; assay: Cmax in rat assessed as 4-Fluoro-6-((7-fluoro-4-oxo-3,4-dihydroquinazolin-6-yl)methyl)-8-(2-oxo-1,2-dihydropyridin-3-yl)-6H-furo[2,3-e]indole-7-carboxylic acid; type: ADME, organism-based; conditions: in vivo
[11] = system: RNA-directed RNA polymerase (Hepacivirus hominis), O39930 [G554D]; assay: Inhibition of HCV NS5B RdRp G554D mutant active site
Rattus norvegicus [12] = assay: Half life in rat assessed as 4-Fluoro-6-((7-fluoro-4-oxo-3,4-dihydroquinazolin-6-yl)methyl)-8-(2-oxo-1,2-dihydropyridin-3-yl)-6H-furo[2,3-e]indole-7-carboxylic acid at 3 mg/kg, iv; type: ADME, organism-based; parameters: dose 3 mg/kg, route intravenous; conditions: in vivo
[13] = system: RNA-directed RNA polymerase (Hepacivirus hominis), O39930 [C316Y]; assay: Inhibition of HCV NS5B RdRp C316Y mutant palm allosteric site
[14] = Solubility of the compound at pH 3; type: physicochemical; conditions: buffer
[15] = system: RNA-directed RNA polymerase (Hepacivirus hominis), O39930 [M414T]; assay: Inhibition of HCV NS5B RdRp M414T mutant palm allosteric site
Rhesus monkey [16] = assay: AUC (0 to 24 hrs) in monkey assessed as 4-Fluoro-6-((7-fluoro-4-oxo-3,4-dihydroquinazolin-6-yl)methyl)-8-(2-oxo-1,2-dihydropyridin-3-yl)-6H-furo[2,3-e]indole-7-carboxylic acid at 3 mg/kg, po; type: ADME, organism-based, Macaca mulatta, Plasma; parameters: time < 24 hr, dose 3 mg/kg, route oral; conditions: in vivo
[17] = system: RNA-directed RNA polymerase (Hepacivirus hominis), O39930 [M414T]; assay: Inhibition of HCV NS5B RdRp M414T mutant active site
Canis familiaris [18] = organism: Canis familiaris; assay: Cmax in dog assessed as 4-Fluoro-6-((7-fluoro-4-oxo-3,4-dihydroquinazolin-6-yl)methyl)-8-(2-oxo-1,2-dihydropyridin-3-yl)-6H-furo[2,3-e]indole-7-carboxylic acid; type: ADME, organism-based, Canis lupus familiaris; conditions: in vivo
Canis familiaris [19] = assay: Oral bioavailability in dog assessed as 4-Fluoro-6-((7-fluoro-4-oxo-3,4-dihydroquinazolin-6-yl)methyl)-8-(2-oxo-1,2-dihydropyridin-3-yl)-6H-furo[2,3-e]indole-7-carboxylic acid; type: ADME, organism-based, Canis lupus familiaris; conditions: in vivo
[20] = Inhibition of HCV genotype 1b C-terminal polyhistidine-tagged NS5B Cdelta21 RdRp expressed in Escherichia coli using DCoH75 as template assessed as incorporation of [33P]-CTP in polynucleotide sequence after 2 hrs by scintillation counting analysis; parameters: species or system Hepatitis C virus subtype 1b
Rhesus monkey [21] = assay: Half life in monkey assessed as 4-Fluoro-6-((7-fluoro-4-oxo-3,4-dihydroquinazolin-6-yl)methyl)-8-(2-oxo-1,2-dihydropyridin-3-yl)-6H-furo[2,3-e]indole-7-carboxylic acid at 1 mg/kg, iv; type: ADME, organism-based, Macaca mulatta; parameters: dose 1 mg/kg, route intravenous; conditions: in vivo
[22] = system: RNA-directed RNA polymerase (Hepacivirus hominis), O39930 [C316Y]; assay: Inhibition of HCV NS5B RdRp C316Y mutant active site

Sequence of RNA-directed RNA polymerase (Hepacivirus hominis), O39930 [G554D] (O39930 entry or part of it G554D): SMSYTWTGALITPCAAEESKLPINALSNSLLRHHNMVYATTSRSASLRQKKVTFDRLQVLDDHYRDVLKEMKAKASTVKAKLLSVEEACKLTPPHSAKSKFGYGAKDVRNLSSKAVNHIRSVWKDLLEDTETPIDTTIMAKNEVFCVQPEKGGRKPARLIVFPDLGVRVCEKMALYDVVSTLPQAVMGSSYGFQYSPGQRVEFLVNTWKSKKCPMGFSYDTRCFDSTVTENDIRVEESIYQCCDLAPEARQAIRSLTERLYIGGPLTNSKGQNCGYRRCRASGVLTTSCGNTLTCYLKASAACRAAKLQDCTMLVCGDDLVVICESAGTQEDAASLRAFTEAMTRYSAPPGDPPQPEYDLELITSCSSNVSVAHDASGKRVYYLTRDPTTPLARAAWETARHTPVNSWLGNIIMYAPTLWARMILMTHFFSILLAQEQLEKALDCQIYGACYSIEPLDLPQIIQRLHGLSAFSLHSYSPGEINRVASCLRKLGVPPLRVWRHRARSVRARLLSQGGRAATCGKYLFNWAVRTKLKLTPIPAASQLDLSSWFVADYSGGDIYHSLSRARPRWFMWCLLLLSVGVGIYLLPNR
Sequence of RNA-directed RNA polymerase (Hepacivirus hominis), O39930 [M414T] (O39930 entry or part of it M414T): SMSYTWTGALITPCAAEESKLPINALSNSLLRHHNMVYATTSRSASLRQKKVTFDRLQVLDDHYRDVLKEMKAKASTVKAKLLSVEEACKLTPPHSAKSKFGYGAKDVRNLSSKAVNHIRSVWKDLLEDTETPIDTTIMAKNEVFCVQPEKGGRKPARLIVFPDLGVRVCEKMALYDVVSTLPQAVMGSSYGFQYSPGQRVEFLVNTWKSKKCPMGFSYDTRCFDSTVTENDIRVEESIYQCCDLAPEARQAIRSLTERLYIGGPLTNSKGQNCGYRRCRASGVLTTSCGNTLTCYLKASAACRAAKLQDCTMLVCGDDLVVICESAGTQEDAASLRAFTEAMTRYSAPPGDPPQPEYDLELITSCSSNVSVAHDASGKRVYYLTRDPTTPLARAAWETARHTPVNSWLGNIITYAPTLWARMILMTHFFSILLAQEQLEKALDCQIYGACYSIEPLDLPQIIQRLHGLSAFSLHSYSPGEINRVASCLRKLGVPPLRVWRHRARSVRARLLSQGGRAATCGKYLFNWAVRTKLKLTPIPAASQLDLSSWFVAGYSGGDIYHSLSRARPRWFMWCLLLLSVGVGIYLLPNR
Sequence of RNA-directed RNA polymerase (Hepacivirus hominis), O39930 [C316Y] (O39930 entry or part of it C316Y): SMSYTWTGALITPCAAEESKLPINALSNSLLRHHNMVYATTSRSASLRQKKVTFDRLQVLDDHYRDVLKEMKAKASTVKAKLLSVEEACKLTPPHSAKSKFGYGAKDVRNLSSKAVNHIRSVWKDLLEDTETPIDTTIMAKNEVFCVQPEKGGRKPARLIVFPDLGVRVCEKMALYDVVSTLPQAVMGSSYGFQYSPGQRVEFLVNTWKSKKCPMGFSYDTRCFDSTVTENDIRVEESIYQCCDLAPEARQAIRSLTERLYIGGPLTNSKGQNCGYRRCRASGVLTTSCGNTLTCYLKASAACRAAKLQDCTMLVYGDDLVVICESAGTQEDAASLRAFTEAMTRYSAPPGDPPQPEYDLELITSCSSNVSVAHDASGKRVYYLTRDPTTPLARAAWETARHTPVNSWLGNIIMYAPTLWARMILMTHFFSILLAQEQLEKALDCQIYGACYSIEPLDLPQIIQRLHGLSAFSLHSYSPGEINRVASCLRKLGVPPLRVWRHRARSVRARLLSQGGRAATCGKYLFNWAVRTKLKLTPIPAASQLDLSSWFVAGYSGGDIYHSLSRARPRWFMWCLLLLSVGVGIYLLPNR

Compound: CN(C)CCOC(=O)c1c(-c2ccc[nH]c2=O)c2c3occc3c(F)cc2n1Cc1cc2c(=O)[nH]cnc2cc1F.Cl
- Activity (Salmonella typhimurium): Non-toxic
- t1/2 (Canis familiaris [1]): 4 h
- AUC (Rattus norvegicus [2]): 22 µM·h
- F (Rhesus monkey [3]): 63%
- inhibition [4]: inactive
- F (Rattus norvegicus [5]): 2%
- AUC (Canis familiaris [6]): 2.4 µM·h
- EC50 (Hepatitis C virus): 0.005 µM
- Ratio (Rattus norvegicus [7]): 0.5
- Activity [8]: Non-toxic
- Cmax (Rhesus monkey [9]): 4100 nM
- Cmax (Rattus norvegicus [10]): 2100 nM
- inhibition [11]: Active
- t1/2 (Rattus norvegicus [12]): 11 h
- inhibition [13]: inactive
- solubility [14]: 900 µM
- inhibition [15]: inactive
- AUC (Rhesus monkey [16]): 144 µM·h
- inhibition [17]: Active
- Cmax (Canis familiaris [18]): 800 nM
- F (Canis familiaris [19]): 29%
- IC50 [20]: 0.15 µM
- t1/2 (Rhesus monkey [21]): 22 h
- inhibition [22]: Active
